Reference: US9809587B2, “Pesticidally active heterocyclic derivatives with sulphur containing substituents” (Syngenta Participations AG, priority 2014, dated 2017)

What was measured:
Format in all cases: in vivo
[1] = system: Diabrotica balteata (Corn Root Worm); experiment: Diabrotica balteata (corn root worm), sprayed maize sprouts; conditions: 96 h, application rate of 200 ppm, L2 larvae on maize sprouts, 4 days after infestation
Description: Example B2: Diabrotica balteata (Corn Root Worm)
Maize sprouts, placed on an agar layer in 24-well microtiter plates were treated with aqueous test solutions prepared from 10′000 ppm DMSO stock solutions by spraying. After drying, the plates were infested with L2 larvae (6 to 10 per well). The samples were assessed for mortality and growth inhibition in comparison to untreated samples 4 days after infestation.

[2] = system: Myzus persicae (Green Peach Aphid); experiment: Myzus persicae (green peach aphid), sprayed sunflower leaf discs; conditions: foliar, 144 h, application rate of 200 ppm, mixed ages on sunflower leaf discs, 6 days after infestation
Description: Example B4: Myzus persicae (Green Peach Aphid)
Sunflower leaf discs were placed on agar in a 24-well microtiter plate and sprayed with aqueous test solutions prepared from 10′000 ppm DMSO stock solutions. After drying, the leaf discs were infested with an aphid population of mixed ages. The samples were assessed for mortality 6 days after infestation.

[3] = system: Plutella xylostella (Diamond Back Moth); experiment: Plutella xylostella (diamond back moth), treated artificial diet; conditions: 120 h, application rate of 200 ppm, L2 larvae on artificial diet, 5 days after infestation, read-out: effect in at least one of the two categories (mortality or growth inhibition)
Description: Example B6: Plutella xylostella (Diamond Back Moth)
24-well microtiter plates with artificial diet were treated with aqueous test solutions prepared from 10′000 ppm DMSO stock solutions by pipetting. After drying, the plates were infested with L2 larvae (10 to 15 per well). The samples were assessed for mortality and growth inhibition in comparison to untreated samples 5 days after infestation.
The following compounds gave an effect of at least 80% in at least one of the two categories (mortality or growth inhibition) at an application rate of 200 ppm: […]

[4] = system: Spodoptera littoralis (Egyqptian Cotton Leaf Worm); experiment: Spodoptera littoralis (Egyptian cotton leaf worm), sprayed cotton leaf discs; conditions: foliar, 72 h, application rate of 200 ppm, L1 larvae on cotton leaf discs, 3 days after infestation
Description: Example B7: Spodoptera littoralis (Egyqptian Cotton Leaf Worm)
Cotton leaf discs were placed on agar in 24-well microtiter plates and sprayed with aqueous test solutions prepared from 10′000 ppm DMSO stock solutions. After drying the leaf discs were infested with five L1 larvae. The samples were assessed for mortality, anti-feedant effect, and growth inhibition in comparison to untreated samples 3 days after infestation. Control of Spodoptera littoralis by a test sample is when at least one of mortality, anti-feedant effect, and growth inhibition is higher than the untreated sample.

[5] = system: Euschistus heros (Neotropical Brown Stink Bug); experiment: Euschistus heros (neotropical brown stink bug), sprayed soybean leaf; conditions: 120 h, application rate of 200 ppm, N-2 nymphs on soybean leaf, 5 days after infestation
Description: Example B3: Euschistus heros (Neotropical Brown Stink Bug)
Soybean leaf on agar in 24-well microtiter plates were sprayed with aqueous test solutions prepared from 10′000 ppm DMSO stock solutions. After drying the leaf were infested with N-2 nymphs. The samples were assessed for mortality in comparison to untreated samples 5 days after infestation.

CCS(=O)(=O)c1cc(-c2ccc(OC)nc2)cnc1-c1nc2cc(C(F)(F)F)ncc2n1C [Compound P1, 2-[3-ethylsulfonyl-5-(6-methoxy-3-pyridyl)-2-pyridyl]-3-methyl-6-(trifluoromethyl)imidazo[4,5-c]pyridine]
≥ 80%: mortality at 200 ppm [1] | mortality at 200 ppm [2] | percent effect (mortality or growth inhibition) at 200 ppm [3] | percent control (mortality, anti-feedant effect or growth inhibition) at 200 ppm [4]

CCS(=O)(=O)c1cc(-c2cnc(Cl)c(C)c2)cnc1-c1nc2cc(C(F)(F)F)ncc2n1C [Compound P4]
≥ 80%: mortality at 200 ppm [5] | mortality at 200 ppm [2] | percent effect (mortality or growth inhibition) at 200 ppm [3] | percent control (mortality, anti-feedant effect or growth inhibition) at 200 ppm [4]

CCS(=O)(=O)c1cc(-c2cncc3ccccc23)cnc1-c1nc2cc(C(F)(F)F)ncc2n1C [Compound P7]
≥ 80%: mortality at 200 ppm [1] | percent effect (mortality or growth inhibition) at 200 ppm [3] | percent control (mortality, anti-feedant effect or growth inhibition) at 200 ppm [4]

CCS(=O)(=O)c1cc(-c2ccc(-c3ccc(F)cc3)nc2)cnc1-c1nc2cc(C(F)(F)F)ncc2n1C [Compound P12]
≥ 80%: mortality at 200 ppm [1] | mortality at 200 ppm [5] | mortality at 200 ppm [2] | percent effect (mortality or growth inhibition) at 200 ppm [3] | percent control (mortality, anti-feedant effect or growth inhibition) at 200 ppm [4]

CCSc1cc(-n2nc(C)cc2C)cnc1-c1nc2cc(C(F)(F)F)ncc2n1C [Compound P13]
≥ 80%: mortality at 200 ppm [1]

CCSc1cc(-n2cc(Cl)cn2)cnc1-c1nc2cc(C(F)(F)F)ncc2n1C [Compound P14, 2-[5-(4-chloropyrazol-1-yl)-3-ethylsulfanyl-2-pyridyl]-3-methyl-6-(trifluoromethyl)imidazo[4,5-c]pyridine]
≥ 80%: mortality at 200 ppm [1] | percent effect (mortality or growth inhibition) at 200 ppm [3] | percent control (mortality, anti-feedant effect or growth inhibition) at 200 ppm [4]

CCS(=O)(=O)c1cc(-n2nc(C)cc2C)cnc1-c1nc2cc(C(F)(F)F)ncc2n1C [Compound P15]
≥ 80%: mortality at 200 ppm [1] | mortality at 200 ppm [5] | mortality at 200 ppm [2] | percent effect (mortality or growth inhibition) at 200 ppm [3] | percent control (mortality, anti-feedant effect or growth inhibition) at 200 ppm [4]

CCS(=O)(=O)c1cc(-c2nc(C)cc(C3CC3)n2)cnc1-c1nc2cc(C(F)(F)F)ncc2n1C [Compound P23, 2-[5-(4-cyclopropyl-6-methyl-pyrimidin-2-yl)-3-ethylsulfonyl-2-pyridyl]-3-methyl-6-(trifluoromethyl)imidazo[4,5-c]pyridine]
≥ 80%: mortality at 200 ppm [1] | mortality at 200 ppm [5] | mortality at 200 ppm [2] | percent effect (mortality or growth inhibition) at 200 ppm [3] | percent control (mortality, anti-feedant effect or growth inhibition) at 200 ppm [4]

CCS(=O)(=O)c1cc(-n2ncc3ccccc32)cnc1-c1nc2cc(C(F)(F)F)ncc2n1C [Compound P24]
≥ 80%: percent effect (mortality or growth inhibition) at 200 ppm [3] | percent control (mortality, anti-feedant effect or growth inhibition) at 200 ppm [4]

CCS(=O)(=O)c1cc(-n2nc(C(F)(F)F)cc2-c2ccc(F)cc2)cnc1-c1nc2cc(C(F)(F)F)ncc2n1C [Compound P28]
≥ 80%: mortality at 200 ppm [1] | percent effect (mortality or growth inhibition) at 200 ppm [3] | percent control (mortality, anti-feedant effect or growth inhibition) at 200 ppm [4]

CCS(=O)(=O)c1cc(-n2ncc3cnc(C(F)(F)F)cc32)cnc1-c1nc2cc(C(F)(F)F)ncc2n1C [Compound P29]
≥ 80%: mortality at 200 ppm [1] | percent effect (mortality or growth inhibition) at 200 ppm [3] | percent control (mortality, anti-feedant effect or growth inhibition) at 200 ppm [4]

CCS(=O)(=O)c1cc(-c2c(C(F)(F)F)n[nH]c2C)cnc1-c1nc2cc(C(F)(F)F)ncc2n1C [Compound P30]
≥ 80%: mortality at 200 ppm [1] | mortality at 200 ppm [5] | mortality at 200 ppm [2]

CCS(=O)(=O)c1cc(-c2cnc3nc(C(F)(F)F)ccn23)cnc1-c1nc2cc(C(F)(F)F)ncc2n1C [Compound P36]
≥ 80%: mortality at 200 ppm [1] | mortality at 200 ppm [5] | mortality at 200 ppm [2] | percent effect (mortality or growth inhibition) at 200 ppm [3] | percent control (mortality, anti-feedant effect or growth inhibition) at 200 ppm [4]

CCS(=O)(=O)c1cc(-c2cnc3nc(C(F)(F)F)cnn23)cnc1-c1nc2cc(C(F)(F)F)ncc2n1C [Compound P38]
≥ 80%: mortality at 200 ppm [1] | mortality at 200 ppm [5] | percent effect (mortality or growth inhibition) at 200 ppm [3] | percent control (mortality, anti-feedant effect or growth inhibition) at 200 ppm [4]

CCS(=O)(=O)c1cc(-c2ccc3nccn3c2C)cnc1-c1nc2cc(C(F)(F)F)ncc2n1C [Compound P42]
≥ 80%: mortality at 200 ppm [5] | mortality at 200 ppm [2]

CCS(=O)(=O)c1cc(-c2ncccc2OC(F)F)cnc1-c1nc2cc(C(F)(F)F)ncc2n1C [Compound P43]
≥ 80%: mortality at 200 ppm [1] | mortality at 200 ppm [5] | mortality at 200 ppm [2] | percent effect (mortality or growth inhibition) at 200 ppm [3] | percent control (mortality, anti-feedant effect or growth inhibition) at 200 ppm [4]

CCS(=O)(=O)c1cc(-c2sccc2C)cnc1-c1nc2cc(C(F)(F)F)ncc2n1C [Compound P48]
≥ 80%: mortality at 200 ppm [1] | percent effect (mortality or growth inhibition) at 200 ppm [3] | percent control (mortality, anti-feedant effect or growth inhibition) at 200 ppm [4]

CCS(=O)(=O)c1cc(-c2cnc3ccccn23)cnc1-c1nc2cc(C(F)(F)F)ncc2n1C [Compound P51]
≥ 80%: mortality at 200 ppm [5] | mortality at 200 ppm [2] | percent effect (mortality or growth inhibition) at 200 ppm [3] | percent control (mortality, anti-feedant effect or growth inhibition) at 200 ppm [4]

CCS(=O)(=O)c1cc(-c2ccc(C)cn2)cnc1-c1nc2cc(C(F)(F)F)ncc2n1C [Compound P55]
≥ 80%: mortality at 200 ppm [1] | mortality at 200 ppm [5] | mortality at 200 ppm [2] | percent effect (mortality or growth inhibition) at 200 ppm [3] | percent control (mortality, anti-feedant effect or growth inhibition) at 200 ppm [4]

CCS(=O)(=O)c1cc(-c2ccc3ccccc3n2)cnc1-c1nc2cc(C(F)(F)F)ncc2n1C [Compound P62]
≥ 80%: mortality at 200 ppm [5] | mortality at 200 ppm [2] | percent effect (mortality or growth inhibition) at 200 ppm [3]

CCS(=O)(=O)c1cc(-c2ncc(N)nc2C)cnc1-c1nc2cc(C(F)(F)F)ncc2n1C [Compound P63]
≥ 80%: mortality at 200 ppm [5] | mortality at 200 ppm [2] | percent effect (mortality or growth inhibition) at 200 ppm [3] | percent control (mortality, anti-feedant effect or growth inhibition) at 200 ppm [4]

CCS(=O)(=O)c1cc(-c2ccsc2C)cnc1-c1nc2cc(C(F)(F)F)ncc2n1C [Compound P68]
≥ 80%: mortality at 200 ppm [5] | percent control (mortality, anti-feedant effect or growth inhibition) at 200 ppm [4]

CCS(=O)(=O)c1cc(-c2ccc(C)s2)cnc1-c1nc2cc(C(F)(F)F)ncc2n1C [Compound P69]
≥ 80%: mortality at 200 ppm [5] | mortality at 200 ppm [2] | percent effect (mortality or growth inhibition) at 200 ppm [3] | percent control (mortality, anti-feedant effect or growth inhibition) at 200 ppm [4]

CCS(=O)(=O)c1cc(-c2ccncc2C#N)cnc1-c1nc2cc(C(F)(F)F)ncc2n1C [Compound P73]
≥ 80%: mortality at 200 ppm [1] | mortality at 200 ppm [5] | mortality at 200 ppm [2] | percent effect (mortality or growth inhibition) at 200 ppm [3]

CCS(=O)(=O)c1cc(-c2ccc(SC)nc2)cnc1-c1nc2cc(C(F)(F)F)ncc2n1C [Compound P75]
≥ 80%: mortality at 200 ppm [1] | mortality at 200 ppm [5] | mortality at 200 ppm [2] | percent effect (mortality or growth inhibition) at 200 ppm [3]

CCS(=O)(=O)c1cc(-c2ccc3[nH]c(=O)[nH]c3c2)cnc1-c1nc2cc(C(F)(F)F)ncc2n1C [Compound P76]
≥ 80%: mortality at 200 ppm [1]

CCS(=O)(=O)c1cc(-c2cc(C)oc2C#N)cnc1-c1nc2cc(C(F)(F)F)ncc2n1C [Compound P78]
≥ 80%: mortality at 200 ppm [1] | mortality at 200 ppm [2]

CCS(=O)(=O)c1cc(-c2cnc(O)nc2O)cnc1-c1nc2cc(C(F)(F)F)ncc2n1C [Compound P79]
≥ 80%: percent effect (mortality or growth inhibition) at 200 ppm [3]

CCS(=O)(=O)c1cc(-c2ncc(OC)cn2)cnc1-c1nc2cc(C(F)(F)F)ncc2n1C [Compound P97]
≥ 80%: mortality at 200 ppm [5] | mortality at 200 ppm [2] | percent effect (mortality or growth inhibition) at 200 ppm [3] | percent control (mortality, anti-feedant effect or growth inhibition) at 200 ppm [4]

CCS(=O)(=O)c1cc(-c2ccnc(C#N)c2)cnc1-c1nc2cc(C(F)(F)F)ncc2n1C [Compound P99]
≥ 80%: mortality at 200 ppm [1] | mortality at 200 ppm [5] | percent effect (mortality or growth inhibition) at 200 ppm [3]

CCS(=O)(=O)c1cc(-c2ccnc(C#N)n2)cnc1-c1nc2cc(C(F)(F)F)ncc2n1C [Compound P107]
≥ 80%: mortality at 200 ppm [1] | percent effect (mortality or growth inhibition) at 200 ppm [3] | percent control (mortality, anti-feedant effect or growth inhibition) at 200 ppm [4]
